Active and inactive are the calls of the source. The rule behind the calls is not given here.
Key:
[1] = Toxicity in mouse infected with Candida albicans assessed as lung injury at 10 ug per 20 g, ip administered on day 2, 4, 6, 8, 10 and 12 and measured on day 14 by H and E staining based assay; assay type: organism-based; details: in vivo, 336 h, dose 10 µg, time 14 day
[2] = target: T1, Prostaglandin G/H synthase 2 (Homo sapiens, UniProt P35354); assay: Inhibition of COX-2 (unknown origin) using arachidonic acid as substrate preincubated for 10 mins followed by substrate addition and measured after 2 mins by immunoassay
T1 sequence (P35354 whole entry): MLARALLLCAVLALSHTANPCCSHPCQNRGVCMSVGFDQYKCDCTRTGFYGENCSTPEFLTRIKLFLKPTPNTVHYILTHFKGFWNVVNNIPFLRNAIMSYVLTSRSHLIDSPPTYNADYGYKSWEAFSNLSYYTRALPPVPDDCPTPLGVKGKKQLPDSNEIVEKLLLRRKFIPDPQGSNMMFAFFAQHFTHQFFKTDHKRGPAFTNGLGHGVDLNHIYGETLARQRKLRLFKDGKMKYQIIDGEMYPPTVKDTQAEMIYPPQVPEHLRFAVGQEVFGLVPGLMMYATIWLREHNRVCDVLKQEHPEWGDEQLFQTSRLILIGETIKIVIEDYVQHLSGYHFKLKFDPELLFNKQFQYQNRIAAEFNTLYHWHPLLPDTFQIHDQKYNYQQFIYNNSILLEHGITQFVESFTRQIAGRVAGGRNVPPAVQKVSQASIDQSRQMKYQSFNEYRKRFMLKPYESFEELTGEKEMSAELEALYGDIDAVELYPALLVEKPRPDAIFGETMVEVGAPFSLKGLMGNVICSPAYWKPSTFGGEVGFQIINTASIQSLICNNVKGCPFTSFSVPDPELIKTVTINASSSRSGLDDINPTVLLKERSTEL

Candida albicans [3] = assay: Antifungal actvity against Candida albicans ATCC SC5314 infected in mouse assessed as shrinking of infection region at 10 ug per 20 g, ip administered on day 2, 4, 6, 8, 10 and 12 and measured on day 14; assay type: functional, organism-based; details: dose 10.0 µg, time 14.0 day
[4] = Toxicity in mouse infected with Candida albicans assessed as kidney injury at 10 ug per 20 g, ip administered on day 2, 4, 6, 8, 10 and 12 and measured on day 14 by H and E staining based assay; assay type: organism-based; details: in vivo, 336 h, dose 10 µg, time 14 day
[5] = Toxicity in mouse infected with Candida albicans assessed as liver injury at 10 ug per 20 g, ip administered on day 2, 4, 6, 8, 10 and 12 and measured on day 14 by H and E staining based assay; assay type: organism-based; details: in vivo, 336 h, dose 10 µg, time 14 day
Mus musculus [6] = species on record: Mus musculus; assay: Antiinflammatory activity against mouse infected with Candida albicans ATCC SC5314 assessed as reduction in NLRP3 expression in spleen by Western blot analysis; assay type: functional, organism-based
[7] = Toxicity in Candida albicans ATCC SC5314 infected-mouse assessed as effect on body weight at 10 ug per 20 g, ip administered on day 2, 4, 6, 8, 10 and 12 and measured on day 14; assay type: organism-based; details: in vivo, 336 h, dose 10 µg, time 14 day
Mus musculus [8] = species on record: Mus musculus; assay: Antiinflammatory activity against mouse infected with Candida albicans ATCC SC5314 assessed as reduction in MMP-9 expression in spleen by Western blot analysis; assay type: functional, organism-based
Candida albicans [9] = assay: Antifungal actvity against Candida albicans ATCC SC5314 infected in mouse assessed as reduction in infection at 10 ug per 20 g, ip administered on day 2, 4, 6, 8, 10 and 12 and measured on day 14; assay type: functional, organism-based; details: time 14.0 day
Mus musculus [10] = species on record: Mus musculus; assay: Antiinflammatory activity in mouse infected with Candida albicans ATCC SC5314 assessed as reduction in MMP-9 expression in spleen by hematoxylin staining based inverted microscopic analysis (reference value: 36.74 a.u.); assay type: functional
Candida albicans [11] = assay: Induction of morphological changes in Candida albicans ATCC SC5314 assessed as edema cavitation measured for 48 to 72 hrs by transmission electron microscopic analysis; assay type: functional, organism-based; details: time 48-72 hrs
[12] = Toxicity in mouse infected with Candida albicans assessed as spleen injury at 10 ug per 20 g, ip administered on day 2, 4, 6, 8, 10 and 12 and measured on day 14 by H and E staining based assay; assay type: organism-based; details: in vivo, 336 h, dose 10 µg, time 14 day
Candida albicans [13] = assay: Antifungal activity against Candida albicans ATCC SC5314 assessed as induction of ROS production by measuring fluorescence intensity incubated for 12 hrs by KGT010-1 staining based fluorescence microscopy; assay type: functional, organism-based
Mus musculus [14] = species on record: Mus musculus; assay: Antiinflammatory activity against mouse infected with Candida albicans ATCC SC5314 assessed as reduction in COX-2 expression in spleen in presence of naproxen by Western blot analysis; assay type: functional; design: scale not given: the % may be the effect or the level left
Cryptococcus neoformans = assay: Antifungal activity against Cryptococcus neoformans ZKCC 2209 assessed as fungal growth inhibition measured after 72 hrs in presence of naproxen by double dilution method; assay type: functional
Candida albicans [15] = assay: Antifungal activity against fluconazole- resistant Candida albicans 904 assessed as fungal growth inhibition measured after 72 hrs in presence of naproxen by double dilution method; assay type: functional
Mus musculus [16] = species on record: Mus musculus; assay: Immunostimulatory activity in mouse infected with Candida albicans ATCC SC5314 assessed as increase in CD8+ expression level in spleen in presence of naproxen by immunohistochemical analysis; assay type: functional, organism-based
Pichia kudriavzevii = assay: Antifungal activity against Candida krusei ATCC 6258 assessed as fungal growth inhibition measured after 72 hrs in presence of naproxen by double dilution method; assay type: functional
Candida albicans [17] = assay: Antifungal activity against fluconazole- resistant Candida albicans CaR assessed as fungal growth inhibition measured after 72 hrs in presence of naproxen by double dilution method; assay type: functional
Candida albicans [18] = assay: Antifungal actvity against Candida albicans ATCC SC5314 infected in mouse assessed as reduction in fungal infection at 10 ug per 20 g, ip administered on day 2, 4, 6, 8, 10 and 12 and measured on day 14 in presence of naproxen; assay type: functional, organism-based; details: dose 10.0 µg, time 14.0 day
[19] = Toxicity in mouse infected with Candida albicans assessed as AST level in plasma at 10 ug per 20 g, ip administered on day 2, 4, 6, 8, 10 and 12 and measured on day 14 in presence of naproxen (reference value: 74.9 +/- 6.7 IU/L); assay type: organism-based; details: in vivo, 336 h, dose 10 µg, time 14 day
Candida albicans [20] = assay: Antifungal activity against fluconazole- resistant Candida albicans 901 assessed as fungal growth inhibition measured after 72 hrs in presence of naproxen by double dilution method; assay type: functional
Candida tropicalis = assay: Antifungal activity against Candida tropicalis ATCC 1369 assessed as fungal growth inhibition measured after 72 hrs in presence of naproxen by double dilution method; assay type: functional
Mus musculus [21] = species on record: Mus musculus; assay: Antiinflammatory activity in mouse infected with Candida albicans ATCC SC5314 assessed as reduction in MMP-9 expression in spleen in presence of naproxen by hematoxylin staining based inverted microscopic analysis; assay type: functional
Candida albicans [22] = assay: Antifungal activity against Candida albicans ATCC SC5314 assessed as fungal growth inhibition measured after 72 hrs in presence of naproxen by double dilution method; assay type: functional
Mus musculus [23] = species on record: Mus musculus; assay: Immunostimulatory activity in mouse infected with Candida albicans ATCC SC5314 assessed as increase in CD3+ expression level in spleen in presence of naproxen by immunohistochemical analysis; assay type: functional, organism-based
[24] = Toxicity in Candida albicans ATCC SC5314 infected-mouse assessed as effect on body weight at 10 ug per 20 g, ip administered on day 2, 4, 6, 8, 10 and 12 and measured on day 14 in presence of naproxen; assay type: organism-based; details: in vivo, 336 h, dose 10 µg, time 14 day

Row | Compound | Activity [1] | IC50 [2] [nM] | Activity (Candida albicans [3]) | Activity [4] | Activity [5] | Activity (Mus musculus [6]) | Activity [7] | Activity (Mus musculus [8]) | Activity (Candida albicans [9]) | Activity (Mus musculus [10]) [a.u.] | Activity [12] | Activity (Candida albicans [13]) | other results
1 | COc1ccc2cc([C@H](C)C(=O)NC(Cn3cncn3)C(=O)c3ccccc3)ccc2c1 (some centres undefined) | Non-Toxic | 1960 | Active | Non-Toxic | Non-Toxic | Active | Non-Toxic | Active | Active | 12.13 | Non-Toxic |  | Activity (Candida albicans [11]): Active
2 | CC(C)NC(=O)[C@@H](Cn1ccnc1)NC(=O)[C@@H](C)c1cccc(C(=O)c2ccccc2)c1 |  | 3020 | Active |  |  | Active | Non-Toxic | Active |  | 12.13 |  | Active | 
3 | OC(Cn1cncn1)(Cn1cncn1)c1ccc(F)cc1F [FLUCONAZOLE] | Non-Toxic |  |  | Non-Toxic | Non-Toxic |  |  |  | Active |  | Non-Toxic | Active | Activity (Mus musculus [14]): 39.43%; MIC50 (Cryptococcus neoformans): 0.25 µg/mL; MIC50 (Candida albicans [15]): 2 µg/mL; Activity (Mus musculus [16]): Active; MIC50 (Pichia kudriavzevii): 1 µg/mL; MIC50 (Candida albicans [17]): 2 µg/mL; Activity (Candida albicans [18]): Active; Activity [19]: 76.4 IU/L; MIC50 (Candida albicans [20]): 4 µg/mL; MIC50 (Candida tropicalis): 0.5 µg/mL; Activity (Mus musculus [21]): 26.05 a.u.; MIC50 (Candida albicans [22]): 0.25 µg/mL; Activity (Mus musculus [23]): Active; Activity [24]: Non-Toxic
